This is an account of results in US7700577B2, “Carbohydrate based anti-bacterials” (Alchemia Limited, priority 2002, dated 2010).

In assay [1] the test system is S. aureus. Nature of the assay: MIC testing, broth microdilution (NCCLS), S. aureus. Type of assay: cell-based, Staphylococcus aureus. To be noted: for SA24 (MIC): S. aureus after 24 hours exposure; for SA48 (MIC): S. aureus after 48 hours exposure. An excerpt:
(§1) The broth microdilution format of the National Committee for Clinical Laboratory Standards (NCCLS) approved standard for susceptibility tests as outlined in M7-A4 “methods for dillution Antimicrobial susceptibility tests for bacteria that grow aerobically; approved standard—fifth edition”, January 2000 was utilized for minimum inhibitory concentration testing in Mueller-Hinton broth. The broth for Streptococcus pyogenes testing was supplemented with 2% laked horse blood. A positive result in initial testing was determined by complete inhibition of macroscopic bacterial growth at a concentration of 128 micrograms per mL after incubation for 16 to 24 hours at 37 degrees C. In the case of Micrococcus luteus, incubation was at 30 degrees C. […] Bacterial Types Are: • SA24 S. aureus after 24 hours exposure • SA48 S. aureus after 48 hours exposure • EC24 E. coli after 24 hours exposure

Assay [2] relates to E. coli. As to the kind of experiment: MIC testing, broth microdilution (NCCLS), E. coli. Type of assay: cell-based. Particulars: E. coli after 24 hours exposure.
Excerpt: as §1
A general note: Broth dilution looks for growth in wells or tubes with falling amounts of substance.

Each structure is given as a SMILES string.

As for `Cc1ccc(S(=O)(=O)NC2[C@H](O[C@@H]3C(NC(=O)Nc4cccc(C(F)(F)F)c4)COC(CO)[C@@H]3N)OC(CO)[C@@H](O)[C@@H]2O)cc1` (stereo partly shown) [compound 50], the “SA24 (MIC)” value in assay [1] is reported as “+ (+ indicates an MIC value of less than 128 micrograms per mL)”.

On to `CCCCCN(CCCCC)C1C(CO)OCC(NC(=O)Nc2cccc(C(F)(F)F)c2)C1OC1OC(CO)C(O)C(O)C1NC(=O)Nc1cccc(C(F)(F)F)c1` (stereo not shown) [compound 60], for which, in assay [1], the “SA24 (MIC)” value is “+ (+ indicates an MIC value of less than 128 micrograms per mL)” and the “SA48 (MIC)” value is “+ (+ indicates an MIC value of less than 128 micrograms per mL)”.

For the compound `Cc1ccc(NC(=N)NC2[C@H](O[C@@H]3C(NC(=O)Nc4cccc(C(F)(F)F)c4)COC(CO)[C@@H]3NC(=O)c3ccc(-c4ccccc4)cc3)OC(CO)[C@@H](O)[C@@H]2O)cc1` (stereo partly shown) [compound 46], the “SA48 (MIC)” value in assay [1] is listed as “+ (+ indicates an MIC value of less than 128 micrograms per mL)”. In addition, the “EC24 (MIC)” value in assay [2] is reported as “− (− indicates an MIC of greater then 128 micrograms per mL)”.

On to `Cc1ccc(S(=O)(=O)NC2C(OC3C(NC(=N)Nc4cccc(C(F)(F)F)c4)COC(CO)C3NC(=O)c3ccc(-c4ccccc4)cc3)OC(CO)C(O)C2O)cc1` (stereo not shown) [compound 12], for which, in assay [1], the “SA24 (MIC)” value is reported as “+ (+ indicates an MIC value of less than 128 micrograms per mL)” and the “SA48 (MIC)” value was “+ (+ indicates an MIC value of less than 128 micrograms per mL)”. Also, the “EC24 (MIC)” value in assay [2] was “+ (+ indicates an MIC value of less than 128 micrograms per mL)”.

Consider `CCCCCC(C)CCC(=O)N[C@H]1C(CO)OCC(NC(=N)Nc2cccc(C(F)(F)F)c2)[C@H]1O[C@@H]1OC(CO)[C@@H](O)[C@H](O)C1NC(=N)Nc1cccc(C(F)(F)F)c1` (stereo partly shown) [compound 19], for which, in assay [1], the “SA24 (MIC)” value was “+ (+ indicates an MIC value of less than 128 micrograms per mL)” and the “SA48 (MIC)” value is “+ (+ indicates an MIC value of less than 128 micrograms per mL)”. For the same compound, the “EC24 (MIC)” value in assay [2] is “+ (+ indicates an MIC value of less than 128 micrograms per mL)”.

Consider `O=C(Cc1cccc(C(F)(F)F)c1)NC1COC(CO)C(NC(=O)c2ccc(-c3ccccc3)cc2)C1OC1OC(CO)C(O)C(O)C1NC(=O)Cc1cccc(C(F)(F)F)c1` (stereo not shown) [compound 2], for which, in assay [1], the “SA24 (MIC)” value is reported as “+ (+ indicates an MIC value of less than 128 micrograms per mL)” and the “SA48 (MIC)” value was “+ (+ indicates an MIC value of less than 128 micrograms per mL)”. Besides, the “EC24 (MIC)” value in assay [2] is recorded as “− (− indicates an MIC of greater then 128 micrograms per mL)”.

In the case of `O=C(Nc1cccc(C(F)(F)F)c1)NC1C(OC2C(NC(=O)c3cccc(C(F)(F)F)c3)COC(CO)C2NC(=O)c2ccc(-c3ccccc3)cc2)OC(CO)C(O)C1O` (stereo not shown) [compound 5], in assay [1], the “SA24 (MIC)” value was “+ (+ indicates an MIC value of less than 128 micrograms per mL)” and the “SA48 (MIC)” value was “+ (+ indicates an MIC value of less than 128 micrograms per mL)”. Moreover, the “EC24 (MIC)” value in assay [2] is “− (− indicates an MIC of greater then 128 micrograms per mL)”.

For `CCCCCCCCCCC(=O)NC1C(CO)OCC(NC(=O)Nc2cccc(C(F)(F)F)c2)C1OC1OC(CO)C(O)C(O)C1NC(=O)OCc1ccccc1` (stereo not shown) [compound 78], the “SA24 (MIC)” value in assay [1] is given as “+ (+ indicates an MIC value of less than 128 micrograms per mL)”.

On to `N=C(Nc1cccc(C(F)(F)F)c1)NC1[C@H](O[C@@H]2C(NC(=N)Nc3cccc(C(F)(F)F)c3)COC(CO)[C@@H]2NC(=N)Nc2ccc(-c3ccccc3)cc2)OC(CO)[C@@H](O)[C@@H]1O` (stereo partly shown) [compound 21], for which, in assay [1], the “SA24 (MIC)” value was “+ (+ indicates an MIC value of less than 128 micrograms per mL)” and the “SA48 (MIC)” value is listed as “+ (+ indicates an MIC value of less than 128 micrograms per mL)”. Besides, the “EC24 (MIC)” value in assay [2] is recorded as “+ (+ indicates an MIC value of less than 128 micrograms per mL)”.

In the case of `CCCCCCCCOc1ccc(C(=O)NC2C(CO)OCC(NC(=O)Nc3cccc(C(F)(F)F)c3)C2OC2OC(CO)C(O)C(O)C2NC(=O)Nc2cccc(C(F)(F)F)c2)cc1` (stereo not shown) [compound 64], in assay [1], the “SA24 (MIC)” value is on record as “+ (+ indicates an MIC value of less than 128 micrograms per mL)” and the “SA48 (MIC)” value is on record as “+ (+ indicates an MIC value of less than 128 micrograms per mL)”.

Turning to `CC(C)=CCCC(C)=CCN[C@H]1C(CO)OCC(NC(=N)Nc2cccc(C(F)(F)F)c2)[C@H]1O[C@@H]1OC(CO)[C@@H](O)[C@H](O)C1NC(=N)Nc1cccc(C(F)(F)F)c1` (stereo partly shown) [compound 23], in assay [1], the “SA24 (MIC)” value is “+ (+ indicates an MIC value of less than 128 micrograms per mL)” and the “SA48 (MIC)” value is given as “+ (+ indicates an MIC value of less than 128 micrograms per mL)”. Besides, the “EC24 (MIC)” value in assay [2] is “+ (+ indicates an MIC value of less than 128 micrograms per mL)”.

As to `N=C(Nc1cccc(C(F)(F)F)c1)NC1[C@H](O[C@@H]2C(NC(=N)Nc3cccc(C(F)(F)F)c3)COC(CO)[C@@H]2NCc2ccc(-c3ccccc3)cc2)OC(CO)[C@@H](O)[C@@H]1O` (stereo partly shown) [compound 20], in assay [1], the “SA24 (MIC)” value is recorded as “+ (+ indicates an MIC value of less than 128 micrograms per mL)” and the “SA48 (MIC)” value was “+ (+ indicates an MIC value of less than 128 micrograms per mL)”. Besides, the “EC24 (MIC)” value in assay [2] is on record as “+ (+ indicates an MIC value of less than 128 micrograms per mL)”.

`CC(C)=CCCC(C)=CCCC(C)=CCN[C@H]1C(CO)OCC(NC(=N)Nc2cccc(C(F)(F)F)c2)[C@H]1O[C@@H]1OC(CO)[C@@H](O)[C@H](O)C1NC(=N)Nc1cccc(C(F)(F)F)c1` (stereo partly shown) [compound 24]: in assay [1], the “SA24 (MIC)” value is recorded as “+ (+ indicates an MIC value of less than 128 micrograms per mL)” and the “SA48 (MIC)” value is “+ (+ indicates an MIC value of less than 128 micrograms per mL)”. The “EC24 (MIC)” value in assay [2] was “+ (+ indicates an MIC value of less than 128 micrograms per mL)”.

`Cc1ccc(S(=O)(=O)NC2[C@H](O[C@@H]3C(NC(=N)Nc4cccc(C(F)(F)F)c4)COC(CO)[C@@H]3N)OC(CO)[C@@H](O)[C@@H]2O)cc1` (stereo partly shown) [compound 13]: the “SA24 (MIC)” value in assay [1] is given as “+ (+ indicates an MIC value of less than 128 micrograms per mL)”.

For the compound `N=C(Nc1cccc(C(F)(F)F)c1)NC1[C@H](O[C@@H]2C(NC(=N)Nc3cccc(C(F)(F)F)c3)COC(CO)[C@@H]2NC(=O)C(N)c2ccc(-c3ccccc3)cc2)OC(CO)[C@@H](O)[C@@H]1O` (stereo partly shown) [compound 25], in assay [1], the “SA24 (MIC)” value is reported as “+ (+ indicates an MIC value of less than 128 micrograms per mL)” and the “SA48 (MIC)” value is recorded as “+ (+ indicates an MIC value of less than 128 micrograms per mL)”. For the same compound, the “EC24 (MIC)” value in assay [2] is “+ (+ indicates an MIC value of less than 128 micrograms per mL)”.

Turning to `N=C(Nc1cccc(C(F)(F)F)c1)NC1[C@H](O[C@@H]2C(NC(=N)Nc3cccc(C(F)(F)F)c3)COC(CO)[C@@H]2NC(=O)c2ccc(-c3ccccc3)cc2)OC(CO)[C@@H](O)[C@@H]1O` (stereo partly shown) [compound 16], in assay [1], the “SA24 (MIC)” value is “+ (+ indicates an MIC value of less than 128 micrograms per mL)” and the “SA48 (MIC)” value is listed as “+ (+ indicates an MIC value of less than 128 micrograms per mL)”. Also, the “EC24 (MIC)” value in assay [2] is “+ (+ indicates an MIC value of less than 128 micrograms per mL)”.

On to `O=C(Nc1cccc(C(F)(F)F)c1)NC1COC(CO)[C@H](NC(=O)c2ccc(-c3ccccc3)cc2)[C@@H]1O[C@@H]1OC(CO)[C@@H](O)[C@H](O)C1NC(=O)OCc1ccccc1` (stereo partly shown) [compound 44], for which, in assay [1], the “SA24 (MIC)” value is recorded as “+ (+ indicates an MIC value of less than 128 micrograms per mL)” and the “SA48 (MIC)” value is given as “+ (+ indicates an MIC value of less than 128 micrograms per mL)”.

In the case of `CCCCCCCCCCC(=O)NC1C(CO)OCC(NC(=O)Nc2cccc(C(F)(F)F)c2)C1OC1OC(CO)C(O)C(O)C1NS(=O)(=O)c1ccc(C)cc1` (stereo not shown) [compound 79], the “SA24 (MIC)” value in assay [1] is “+ (+ indicates an MIC value of less than 128 micrograms per mL)”.

Take `N[C@H]1C(CO)OCC(NC(=O)Nc2cccc(C(F)(F)F)c2)[C@H]1O[C@@H]1OC(CO)[C@@H](O)[C@H](O)C1NC(=O)OCc1ccccc1` (stereo partly shown) [compound 45]: in assay [1], the “SA24 (MIC)” value is given as “+ (+ indicates an MIC value of less than 128 micrograms per mL)”.

Consider `CCCCCCCCCCC(=O)NC1C(CO)OCC(NC(=O)NCCCC)C1OC1OC(CO)C(O)C(O)C1NS(=O)(=O)c1ccc(C)cc1` (stereo not shown) [compound 80], for which the “SA24 (MIC)” value in assay [1] is reported as “+ (+ indicates an MIC value of less than 128 micrograms per mL)”.

For `NC1[C@H](O[C@@H]2C(NC(=O)Nc3cccc(C(F)(F)F)c3)COC(CO)[C@@H]2NC(=O)c2ccc(-c3ccccc3)cc2)OC(CO)[C@@H](O)[C@@H]1O` (stereo partly shown) [compound 43], the “SA24 (MIC)” value in assay [1] is reported as “+ (+ indicates an MIC value of less than 128 micrograms per mL)”.

On to `O=C(/C=C/c1ccc(Cl)cc1)N[C@H]1C(CO)OCC(NC(=O)Nc2cccc(C(F)(F)F)c2)[C@H]1O[C@@H]1OC(CO)[C@@H](O)[C@H](O)C1NC(=O)Nc1cccc(C(F)(F)F)c1` (stereo partly shown) [compound 58], for which, in assay [1], the “SA24 (MIC)” value is reported as “+ (+ indicates an MIC value of less than 128 micrograms per mL)” and the “SA48 (MIC)” value is on record as “+ (+ indicates an MIC value of less than 128 micrograms per mL)”.

In the case of `CCCCCC(C)CCC(=O)N[C@H]1C(CO)OCC(NC(=O)Nc2cccc(C(F)(F)F)c2)[C@H]1O[C@@H]1OC(CO)[C@@H](O)[C@H](O)C1NC(=O)Nc1cccc(C(F)(F)F)c1` (stereo partly shown) [compound 55], in assay [1], the “SA24 (MIC)” value was “+ (+ indicates an MIC value of less than 128 micrograms per mL)” and the “SA48 (MIC)” value is listed as “+ (+ indicates an MIC value of less than 128 micrograms per mL)”.

For `O=C(N[C@H]1C(CO)OCC(NS(=O)(=O)c2cccc(C(F)(F)F)c2)[C@H]1O[C@@H]1OC(CO)[C@@H](O)[C@H](O)C1NS(=O)(=O)c1cccc(C(F)(F)F)c1)c1ccc(-c2ccccc2)cc1` (stereo partly shown) [compound 36], in assay [1], the “SA24 (MIC)” value is reported as “+ (+ indicates an MIC value of less than 128 micrograms per mL)” and the “SA48 (MIC)” value is “+ (+ indicates an MIC value of less than 128 micrograms per mL)”.

Regarding `Cc1ccc(NC(=N)NC2[C@H](O[C@@H]3C(NC(=O)Nc4cccc(C(F)(F)F)c4)COC(CO)[C@@H]3N)OC(CO)[C@@H](O)[C@@H]2O)cc1` (stereo partly shown) [compound 47], in assay [1], the “SA24 (MIC)” value is given as “+ (+ indicates an MIC value of less than 128 micrograms per mL)”.
